Experiment in all cases: relative viability (nuclei count vs DMSO), 5 days (fraction); higher = more cells survive
Compound in experiment [1]: Cc1ccccc1C(C(=O)NC1CCCCC1)N(C(=O)Cn1ccnc1C)c1cccc(F)c1 [IDH-C35] + CS(=O)(=O)CCNCc1ccc(-c2ccc3ncnc(Nc4ccc(OCc5cccc(F)c5)c(Cl)c4)c3c2)o1 [Lapatinib] (partner 2 µM)
A digest of the protocol:
(§1)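 Relative viability divides the nuclei count in treated wells by that in vehicle wells. Lung cancer cell lines were seeded in 1536-well plates, dosed by pin tool the next day, and fixed and stained after 5 days in one step with final 0.05% Triton X-100, 1% formaldehyde and 1 ug/ml Hoechst. Dosing was a single drug or a fixed anchor-drug dose plus five library-drug doses (not always all listed) in √10 steps, and values are medians of duplicate plates imaged at 4×.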

Compound in experiment [2]: Cc1ccccc1C(C(=O)NC1CCCCC1)N(C(=O)Cn1ccnc1C)c1cccc(F)c1 [IDH-C35] + NC(=O)Nc1cc(-c2cccc(F)c2)sc1C(=O)N[C@H]1CCCNC1 [AZD7762] (partner 0.2 µM)
The gist of the method:
as §1

Compound in experiment [3]: Cc1ccccc1C(C(=O)NC1CCCCC1)N(C(=O)Cn1ccnc1C)c1cccc(F)c1 [IDH-C35] + CCNC(=O)c1noc(-c2cc(C(C)C)c(O)cc2O)c1-c1ccc(CN2CCOCC2)cc1 [Luminespib] (partner 0.01 µM)
The gist of the method:
as §1

Compound in experiment [4]: CC1=C(C(=NN1)C)CC2=C(C3=C(S2)N(C(=O)N(C3=O)C)CC(C)C)C(=O)N4C[C@@H](CO4)O + COc1cccc2cc(-c3nc([C@H]4CC[C@H](C(=O)O)CC4)n4ncnc(N)c34)[nH]c12 [OSI-027] (partner 0.5 µM)
A digest of the protocol:
as §1

For NCI-H1651, the relative viability in experiment [1] (first compound 0.08 µM) amounted to 0.849; in experiment [1] (first compound 0.253 µM) it was 0.828; in experiment [1] (first compound 0.8 µM), 0.954; in experiment [1] (first compound 2.53 µM), 1; in experiment [1] (first compound 8 µM) it was 0.76; in experiment [2] (first compound 0.08 µM), 0.454. Besides, the relative viability is 0.518 in experiment [2] (first compound 0.253 µM); 0.463 in experiment [2] (first compound 0.8 µM); 0.438 in experiment [2] (first compound 2.53 µM); 0.413 in experiment [2] (first compound 8 µM); 0.861 in experiment [3] (first compound 0.08 µM); 0.6 in experiment [3] (first compound 0.253 µM). Moreover, the relative viability in experiment [3] (first compound 0.8 µM) is 0.67; in experiment [3] (first compound 2.53 µM) it was 0.797; in experiment [3] (first compound 8 µM) it was 0.716; in experiment [4] (first compound 0.0025 µM), 0.726; in experiment [4] (first compound 0.007906 µM), 0.734; in experiment [4] (first compound 0.025 µM) it was 0.846. Also, the relative viability was determined as 0.659 in experiment [4] (first compound 0.07906 µM) and 0.662 in experiment [4] (first compound 0.25 µM).
Consider NCI-H1666, for which the relative viability is 0.599 in experiment [1] (first compound 0.08 µM); 0.523 in experiment [1] (first compound 0.253 µM); 0.481 in experiment [1] (first compound 0.8 µM); 0.736 in experiment [1] (first compound 2.53 µM); 0.605 in experiment [1] (first compound 8 µM); 0.934 in experiment [2] (first compound 0.08 µM). The relative viability in experiment [2] (first compound 0.253 µM) is 1.03; in experiment [2] (first compound 0.8 µM) it was 0.795; in experiment [2] (first compound 2.53 µM) it was 0.712; in experiment [2] (first compound 8 µM), 0.94; in experiment [3] (first compound 0.08 µM), 0.984; in experiment [3] (first compound 0.253 µM) it was 0.979. For the same cell line, the relative viability in experiment [3] (first compound 0.8 µM) was determined as 1.04; in experiment [3] (first compound 2.53 µM), 1.04; in experiment [3] (first compound 8 µM), 1; in experiment [4] (first compound 0.0025 µM), 0.881; in experiment [4] (first compound 0.007906 µM) it was 0.927; in experiment [4] (first compound 0.025 µM), 0.811. Besides, the values for the relative viability in experiment [4] (first compound 0.07906 µM) and in experiment [4] (first compound 0.25 µM) were 0.8 and 0.944, respectively.
For the cell line NCI-H1734, the relative viability was determined as 1.05 in experiment [1] (first compound 0.08 µM); 1.18 in experiment [1] (first compound 0.253 µM); 1.06 in experiment [1] (first compound 0.8 µM); 0.94 in experiment [1] (first compound 2.53 µM); 1.02 in experiment [1] (first compound 8 µM); 0.575 in experiment [2] (first compound 0.08 µM). The relative viability in experiment [2] (first compound 0.253 µM) came out at 0.623; in experiment [2] (first compound 0.8 µM) it was 0.532; in experiment [2] (first compound 2.53 µM) it was 0.49; in experiment [2] (first compound 8 µM) it was 0.551; in experiment [3] (first compound 0.08 µM), 0.193; in experiment [3] (first compound 0.253 µM) it was 0.215. Moreover, the relative viability amounted to 0.214 in experiment [3] (first compound 0.8 µM); 0.19 in experiment [3] (first compound 2.53 µM); 0.191 in experiment [3] (first compound 8 µM); 0.682 in experiment [4] (first compound 0.0025 µM); 0.592 in experiment [4] (first compound 0.007906 µM); 0.65 in experiment [4] (first compound 0.025 µM). Moreover, the relative viability in experiment [4] (first compound 0.07906 µM) was 0.617; in experiment [4] (first compound 0.25 µM), 0.624.
As for NCI-H1755, the relative viability came out at 1.08 in experiment [1] (first compound 0.08 µM); 1.03 in experiment [1] (first compound 0.253 µM); 0.992 in experiment [1] (first compound 0.8 µM); 1.03 in experiment [1] (first compound 2.53 µM); 1.02 in experiment [1] (first compound 8 µM); 0.47 in experiment [2] (first compound 0.08 µM). The relative viability in experiment [2] (first compound 0.253 µM) is 0.574; in experiment [2] (first compound 0.8 µM), 0.453; in experiment [2] (first compound 2.53 µM), 0.452; in experiment [2] (first compound 8 µM), 0.462; in experiment [3] (first compound 0.08 µM), 0.535; in experiment [3] (first compound 0.253 µM), 0.365. Also, the relative viability was 0.454 in experiment [3] (first compound 0.8 µM); 0.412 in experiment [3] (first compound 2.53 µM); 0.715 in experiment [3] (first compound 8 µM); 0.767 in experiment [4] (first compound 0.0025 µM); 0.743 in experiment [4] (first compound 0.007906 µM); 0.684 in experiment [4] (first compound 0.025 µM). In addition, the relative viability in experiment [4] (first compound 0.07906 µM) was 0.702; in experiment [4] (first compound 0.25 µM) it was 0.704.

(Values after the supplement of paper PMC10307832.)
